Test results as given in patent publication US8956622B2, “Peptidic antagonists of class III semaphorins/neuropilins complexes” (INSERM—Institut National de la Sante et de la Recherche …, priority 2005, dated 2015).

Assays:
NRP1 receptor complex = molecular target: T1, NRP1 receptor complex (Rattus norvegicus, UniProt Q9QWJ9); experiment: Formation of NRP1 receptor complexes, sucrose density gradient sedimentation and western blot; type: cell-based; conditions: C6 cells expressing NRP1 and Plexin-A1, peptide 10^−9 M for 1 h
T1 construct: C6 cells expressing NRP1 and Plexin-A1 were incubated or not with the pTM-NRP1 peptide; endogenous in cells; host or cells: rat C6 glioma cells
Experimental: To further investigate the role of the transmembrane domain of the NRP1 receptor in the formation of the NRP1 receptor complex, the formation of NRP1 complexes has been determined on C6 cells expressing NRP1 and plexin-A1 in the presence or not of the transmembrane domain peptide of NRP1 (pTM-NRP1 peptide) and of the ligand Sema3A.
C6 cells expressing NRP1 and Plexin-A1 were incubated or not with the pTM-NRP1 peptide (10^−9 M) for 1 h. The culture medium has been then replaced of HER cells stably transfected or not with a construction expressing Sema 3A. Confluent C6 have been harvested with 10 mM EDTA and centrifuged. The pellet has been washed in PBS and then diluted in lysis buffer (Tris-HCL/NaCl; 50/150; pH 8.0) with 0.1% SDS, 1 mM EDTA, 1% NP-40, 0.5% DOC, 2 mM vanadate and proteases inhibitors without SDS (PIERCE). After solubilization for 1 h at 4° C., protein amount is estimated by bicinchoninic acid method (BCA Protein Assay, PIERCE).
Sucrose density gradient sedimentation experiments were based on a step gradient containing 25%, 17%, 10% and 3% sucrose. […]
The membrane has been then incubated 2 hours with polyclonal anti-NRP1 at a 1:1000 dilution (ONCOGENE). […] Immunoreactivity has been then detected with an enhanced chemoluminescence western blot detection system (PIERCE) according to the manufacturer's instructions. […]

C6 glioma = C6 glioma cells pre-incubated with peptide and injected into the striatum, tumour development at 8 days; type: in vivo, rats
Experimental: The rat C6 glioma cell line, which is a good model of human glioma (DAI and HOLLAND, Biochim. Biophys. Acta, vol. 1551, p: M19-27, 2001), has been used to investigate how the blockade of NRP1 by using our peptidic strategy (pTM-NRP1) may interfere with cell migration and dissemination.
C6 cells (ATCC CCL-107) were stained using PKH26 (Sigma). Cells were incubated with peptides (pTM-NRP1 10^−8M or mutated pTM-NRP1 10^−8M) prior to injections for at least 2 h on ice in culture medium (composed of MEM with 5000 u/ml penicillin, 5 mg/ml streptomycin, 200 mM L-glutamine and 10% fetal calf serum). Injections of 10^6 cells were performed using a stereotaxic frame according to the following coordinates: antero-posterior, +1.6 mm relative to Bregma; L, +2 mm; H, +5 mm relative to the cortical surface.
All injections were performed in the left striatum.
Following a survival period of 8 days, the animals (3 groups of 4 rats) were killed by a lethal intra-peritoneal injection of pentobarbital before trans-cardiac perfusion with a pre-rinse of 100 ml PBS followed by 500 ml of 2% formaldehyde. The brains were post-fixed during 2 hours at 4° C. and sagittal sections (70 μm) were prepared on a vibratome.
One group of sections were mounted in PBS-glycerol (v/v) for microscopic observation, and another one was treated for immunostaining of CD34. […]

[1] = system: COS-1 cells expressing NRP1 and Plexin-A1; experiment: COS cellular collapses triggered by Sema3A; type: cell-based; conditions: peptide 10^−9 M, 1 hour pre-incubation, Sema 3A 4 hours
Experimental: Nevertheless, the artificial expression of NRP1 and Plexin-A1 in COS cells allows Sema 3A to trigger cellular collapses. To investigate the effect of the pTM-NRP1 peptide on the Sema3A functional properties, the shape of COS cells expressing NRP1 and Plexin-A1 was analyzed in the presence or not of Sema 3A and of pTM-NRP1 or pTM-NRP1^mut peptide.
COS-1 cells have been transfected by 1 μg of pBK-CMV (STRATAGENE) plasmids containing NRP1 and plexin-A1 coding sequences (provided by Pr. PUSCHEL; MUNSTER Universitat, Germany) with LIPOFECTAMINE 2000 (IN VITROGEN) according to the manufacturer's instructions in 6-well plates. Stably COS-1 transfected cells have been selected with 0.7% geneticine. Stably transfected COS-1 cells have been cultured on 12-well plates with previously poly-L-lysine-coated glass coverslips. Cells have been then incubated 1 hour with pTM-NRP1 or pTM-NRP1^mut peptide (10^−9M) at 37° C. The culture medium has been then removed and replaced by conditioned medium of HEK cells stably transfected or not with a construction expressing Sema 3A (100 μl/ml D-MEM) for 4 hours at 37° C. Finally, cells have been fixed with 2% formaldehyde for 30 minutes followed by 15 minutes in formaldehyde 4%. For each condition tested, about 400 cells have been analyzed.

oligomerization of NRP1 in the presence of Sema 3A (NRP1 receptor complex): inhibited
Sequence: ILITIIAMSALGVLLGAVCGVVL [pTM-NRP1]
tumour size (C6 glioma; C6 cells treated with peptide 10^−8 M prior to injection in the left striatum, 8 days, n=4): strong reduction
immunoreactivity for CD34, a marker of neoangiogenesis (C6 glioma; C6 cells treated with peptide 10^−8 M prior to injection, brain sections at 8 days): strong reduction
effect on cellular collapses of COS-1 cells triggered by Sema 3A [1]: completely abolished
